These results are taken from patent US7531569B2, “Process for preparing (3-oxo-2,3-dihydro-1H-isoindol-1-yl) acetylguanidine derivatives” (sanofi-aventis Deutschland GmbH, priority 2003, dated 2009).

A word on the IC50: it is the concentration at which inhibition is half-maximal.

Data set [1] in a line: Stated solid-state and physicochemical properties of the salt (no method described). The note with it: qualitative statement, no conditions given.
The target of a further data set is T1, human NHE-1 (Homo sapiens, UniProt P19634).
T1 construct: expressed in transfected cells; host or cells: LAP-1 (parental line without endogenous NHE activity), G418 selection
T1 sequence (P19634 whole entry): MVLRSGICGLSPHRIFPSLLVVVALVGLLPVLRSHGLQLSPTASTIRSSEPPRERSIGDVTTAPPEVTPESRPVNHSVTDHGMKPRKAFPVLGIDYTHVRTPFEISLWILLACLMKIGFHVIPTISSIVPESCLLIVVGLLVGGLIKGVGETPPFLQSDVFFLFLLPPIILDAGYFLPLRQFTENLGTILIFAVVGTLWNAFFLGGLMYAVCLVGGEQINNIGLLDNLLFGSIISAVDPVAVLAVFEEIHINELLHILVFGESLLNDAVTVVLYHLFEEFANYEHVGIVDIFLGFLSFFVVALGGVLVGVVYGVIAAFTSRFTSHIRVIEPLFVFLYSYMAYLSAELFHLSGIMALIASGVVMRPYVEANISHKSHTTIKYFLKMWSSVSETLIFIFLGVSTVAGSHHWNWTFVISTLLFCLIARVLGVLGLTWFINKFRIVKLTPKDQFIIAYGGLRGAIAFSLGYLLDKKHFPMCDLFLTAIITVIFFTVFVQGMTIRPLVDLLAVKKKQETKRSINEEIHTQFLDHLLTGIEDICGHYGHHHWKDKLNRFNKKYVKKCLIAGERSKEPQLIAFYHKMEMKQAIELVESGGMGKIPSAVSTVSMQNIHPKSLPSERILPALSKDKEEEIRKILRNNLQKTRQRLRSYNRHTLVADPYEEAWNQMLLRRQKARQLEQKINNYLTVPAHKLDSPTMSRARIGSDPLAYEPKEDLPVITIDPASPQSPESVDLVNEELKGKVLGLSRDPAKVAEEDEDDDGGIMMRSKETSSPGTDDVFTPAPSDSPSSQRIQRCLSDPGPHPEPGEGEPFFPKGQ
The data set can be described thus: FLIPR assay of pHi recovery in transfected LAP-1 cell lines expressing human NHE-1. Particulars: transfected cells expressing human NHE-1, read-out: NHE1 inhibition IC50. The data set is classed as cell-based. How it is done: The inhibitory concentration IC50 for NHE-1 inhibition was determined as follows:
The NHE-1 inhibition IC50 was determined in an FLIPR assay by measurement of the recovery in pHi in transfected cell lines which express human NHE-1.
The assay was carried out in an FLIPR (fluorescent imaging plate reader) with black-walled 96-well microtiter plates having clear bases.
The growth medium for the transfected cells (Iscove+10% fetal calf serum) additionally contained G418 as a selection antibiotic in order to ensure the presence of the transfected sequences.
The actual assay started with the removal of the growth medium and addition of 100 μl of loading buffer per well (5 μM BCECF-AM [2′,7′-bis(carboxyethyl)-5- (and -6-)carboxyfluorescein, acetoxymethyl ester] in 20 mM NH4Cl, 115 mM choline chloride, 1 mM MgCl2, 1 mM CaCl2, 5 mM KCl, 20 mM HEPES, 5 mM glucose; pH 7.4 [adjusted with KOH]). The cells were then incubated at 37° C. for 20 minutes. This incubation led to loading of the cells with the fluorescent dye whose fluorescence intensity depends on pHi, and with NH4Cl which makes the cells slightly alkaline.
The nonfluorescent dye precursor BCECF-AM is, as the ester, membrane-permeable. Inside the cell, esterases release the actual BCECF dye which is membrane-impermeable. […]

Structures are written as SMILES.

Take `NC(N)=NC(=O)C[C@H]1c2cc(C(F)(F)F)ccc2C(=O)N1CC(F)(F)F.O=C(O)/C=C/C(=O)O` [(S)-N-{2-[3-Oxo-2-(2,2,2-trifluoroethyl)-6-trifluoromethyl-2,3-dihydro-1H-isoindol-1-yl]-acetyl}guanidine hydrogenfumarate hydrate]: in data set [1], the hygroscopicity entry was “particularly low hygroscopicity”, the solubility result is “good solubility” and the tendency to racemization entry is “low tendency to racemization”.

Take `NC(N)=NC(=O)C[C@H]1c2cc(C(F)(F)F)ccc2C(=O)N1CC(F)(F)F` [(S)-N-{2-[3-Oxo-2-(2,2,2-trifluoroethyl)-6-trifluoromethyl-2,3-dihydro-1H-isoindol-1-yl]-acetyl}guanidine]: the half-maximal inhibitory concentration (IC50) on human NHE-1 is 300 pM.
